This note sets out measurements from patent publication US20060004012A1, “Compounds, pharmaceutical compositions and methods for use in treating metabolic disorders” (priority 2004, published 2006).

For this assay, the target named is T1, human GPR40 (Homo sapiens, UniProt O14842).
T1 construct: expressed in transfected cells; host or cells: CHO cells, transiently transfected with Lipofectamine 2000 and co-transfected with an aequorin expression vector (Euroscreen)
T1 sequence (O14842 whole entry): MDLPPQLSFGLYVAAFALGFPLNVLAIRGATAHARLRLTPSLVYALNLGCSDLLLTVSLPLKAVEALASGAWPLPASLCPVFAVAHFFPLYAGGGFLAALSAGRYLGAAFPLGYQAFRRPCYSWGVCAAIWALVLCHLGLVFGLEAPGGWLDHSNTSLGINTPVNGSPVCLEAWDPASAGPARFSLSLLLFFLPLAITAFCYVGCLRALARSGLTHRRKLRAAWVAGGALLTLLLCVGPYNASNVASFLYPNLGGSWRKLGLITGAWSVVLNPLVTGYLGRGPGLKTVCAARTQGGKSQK
The assay can be described thus: Cell-based aequorin assay using human GPR40. The note with it: activation of human GPR40; CHO cells transfected with GPR40 and aequorin expression vectors; aequorin luminescence, area-under-curve 2-20 seconds; read-out: Relative EC50. Here is the method:
A cell-based aequorin assay may be employed to characterize the modulatory activity of compounds on the GPR40 signaling pathway. In an exemplary assay, CHO cells are transfected in a 15 cm plated containing 14 million cells with 5 μg of GPR40 expression vector and 5 μg of Aequorin expression vector (Euroscreen) using Lipofectamine 2000 (Invitrogen). After 17-24 hours post-transfection, cells are washed with phosphate buffered saline (PBS) and detached from the tissue culture dish with 2 mL of trypsin (0.25%(w/v)). Trypsinization is halted with 28 mL of Hanks Buffered Salt Solution containing 20 mM Hepes (H/HBSS) and 0.01% fatty acid-free bovine serum albumin (BSA) or 0.625% fatty acid-free human serum albumin (HSA). Coelantrazine is added to 1 ug/mL and the cells are incubated for 2 hours at room temperature. Cells are gently mixed every 15 minutes. Compounds are dissolved in dimethyl sulfoxide for preparation of 10 mM stock solutions. Compounds are diluted in H/HBSS containing either 0.01% BSA or 0.625% HSA. Serial dilutions of the test compounds are prepared to determine dose response.
Aequorin luminescence measurements are made using an EG&G Berthold 96-well luminometer and the response is measured over a 20 second interval after cells and compounds were mixed. The area-under-curve from 2-20 seconds is plotted to determine dose reponse. The EC50 (effective concentration to reach 50% maximal response) is determined from the dose response plot. […]
On to `CC#CC(CC(=O)O)c1ccc(OCc2csc(-c3ccc(OC)c(OC)c3)n2)cc1` (centres unmarked) [Compound 8.6], for which the 50% effective concentration (EC50) is 100 to 1000 nM.
The result for `CC#CC(CC(=O)O)c1ccc(OCc2cn(-c3ccc(Cl)cc3)nn2)cc1` (centres unmarked) [Compound 76] reads 1000 to 10000 nM; that for `C#CC(CC(=O)O)c1ccc(OCc2ccc(OC)cc2)cc1` (centres unmarked) [Compound 41], 100 to 1000 nM.
For `O=C(O)CC(c1ccccc1)c1ccc(OCc2cccc(Oc3ccccc3)c2)cc1` (centres unmarked) [Compound 84.1], the EC50 is 10 to 100 nM.
For `CC#CC(CC(=O)O)c1ccc(OCc2ccc(-c3ccc(C(F)(F)F)cc3)cc2)cc1` (centres unmarked) [Compound 7.10] the value was 100 to 1000 nM.
For `Cc1ccc(C(CC(=O)O)c2ccc(OCc3cccc(Oc4ccccc4)c3)cc2)cc1` (single isomer, unassigned) [Compound 84.2] the value was 1000 to 10000 nM; for `CC#CC(CC(=O)O)c1ccc(OCc2cccc(Oc3ccccc3)c2)cc1` (centres unmarked) [Compound 10.3], 10 to 100 nM.
For `CC#CC(CC(=O)O)c1ccc(OCc2ccc(-c3ccc(C#N)cc3)cc2)cc1` (centres unmarked) [Compound 7.15] the value was 10 to 100 nM.
On to `CC#CC(CC(=O)O)c1ccc(OCc2cccc(-c3cccnc3)c2)cc1` (centres unmarked) [Compound 10.9], for which the EC50 fell in the range of 100 to 1000 nM.
The result for `Cc1ccccc1COc1ccc(C(C#CC(F)(F)F)CC(=O)O)cc1` (centres unmarked) [Compound 75] reads over 10000 nM; that for `CCCCOc1ccc(C)cc1-c1ccc(COc2ccc(C(CC(=O)O)c3ccnn3C)cc2)cc1` (centres unmarked) [Compound 66.5], 100 to 1000 nM.
On to `CC#CC(CC(=O)NS(C)(=O)=O)c1ccc(OCc2ccc(OC)cc2)cc1` (centres unmarked) [Compound 81], for which the EC50 is 1000 to 10000 nM.
The result for `O=C(O)CC(c1ccc(OCc2cccc(Oc3ccccc3)c2)cc1)c1cccc(Cl)c1` (centres unmarked) [Compound 84.6] reads 100 to 1000 nM; that for `O=C(O)CN(c1ccccc1)c1ccc(NC(=O)Cc2ccccc2)cc1` [Compound 82.4], 10 to 100 nM.
The result for `CC#CC(CC(=O)O)c1ccc(OCc2ccc(Cc3ccccc3)cc2)cc1` (centres unmarked) [Compound 10.6] reads 10 to 100 nM; that for `COc1ccc(COc2ccc(C(CC(=O)O)c3ccc(F)cc3)cc2)cc1` (centres unmarked) [Compound 14.2], 100 to 1000 nM; that for `CC#CC(Cc1nnn[nH]1)c1ccc(OCc2ccccc2C)cc1` (centres unmarked) [Compound 23, 5-{2-[4-(2-Methyl-benzyloxy)-phenyl]-pent-3-ynyl}-1H-tetrazole], 1000 to 10000 nM.
With `CC#CC(CC(=O)O)c1ccc(OCc2sc(-c3ccccc3)nc2C)cc1` (centres unmarked) [Compound 9.3], the EC50 was 10 to 100 nM.
The result for `CC#CC(CC(=O)O)c1ccc(NC(=O)c2cccc(OC)c2)cc1` (centres unmarked) [Compound 74] reads 1000 to 10000 nM.
`COc1ccc(COc2ccc(C(C=C(C)C)CC(=O)O)cc2)cc1` (centres unmarked) [Compound 34.5]: the EC50 lay within 100 to 1000 nM.
For `CC#CC(CC(=O)O)c1ccc(OCc2cnn(-c3ccc(F)cc3)c2C)cc1` (centres unmarked) [Compound 11.1] the value was 100 to 1000 nM.
The result for `Cc1ccccc1COc1ccc(C(C#CC2CC2)CC(=O)O)cc1` (centres unmarked) [Compound 72] reads 100 to 1000 nM; that for `CC#CC(CC(=O)O)c1ccc(OCc2csc(-c3ccc(Cl)cc3)n2)cc1` (centres unmarked) [Compound 8.3], 10 to 100 nM; that for `O=C(O)CC(c1ccc(OCc2cccc(Oc3ccccc3)c2)cc1)c1cccc(C(F)(F)F)c1` (centres unmarked) [Compound 85.2], 100 to 1000 nM.
In the case of `Cc1cnc(C(CC(=O)O)c2ccc(OCc3cccc(-c4ccc(C(F)(F)F)cc4)c3)cc2)s1` (centres unmarked) [Compound 70.1], the EC50 was in the range of 1000 to 10000 nM.
The result for `CC#CC(CC(=O)O)c1ccc(OCc2ccc(-c3ccncc3)cc2)cc1` (centres unmarked) [Compound 10.13] reads 100 to 1000 nM; that for `COc1cccc(C(CC(=O)O)c2ccc(OCc3cccc(Oc4ccccc4)c3)cc2)c1` (centres unmarked) [Compound 84.8], 100 to 1000 nM; that for `COc1cccc(CNc2ccc(N(CC(=O)O)c3ccccc3)cc2)c1` [Compound 82.2], under 10 nM.
Turning to `CC(C)CN(CC(C)C)[C@@H](CC(=O)O)c1ccc(OCc2cccc(Oc3ccc(F)cc3)c2)cc1` [Compound 88.1], the EC50 is over 10000 nM.
Regarding `OC(O)CC(c1ccc(OCc2cccc(-c3ccc(C(F)(F)F)cc3)c2)cc1)C1CC1` (centres unmarked) [Compound 91], the EC50 lay in the range of 1000 to 10000 nM.
For `CC#CC(CC(=O)O)c1ccc(OCc2cccc(-c3ccc(OCC)cc3)c2)cc1` (centres unmarked) [Compound 6.3] the value was 10 to 100 nM; for `CC#CC(CC(=O)O)c1ccc(OCc2sc(-c3ccc(C(F)(F)F)cc3)nc2C)cc1` (centres unmarked) [Compound 9.1], 10 to 100 nM.
The result for `CC#C[C@@H](CC(=O)O)c1ccc(OCc2ccccc2C)cc1` (single isomer, unassigned) [Compound 15] reads 10 to 100 nM; that for `CC#CC(CC(=O)O)c1ccc(OCc2nc(-c3ccc(C(F)(F)F)cc3)oc2C)cc1` (centres unmarked) [Compound 18, 3-{4-[5-Methyl-2-(4-trifluoromethyl-phenyl)-oxazol-4-ylmethoxy]-phenyl}-hex-4-ynoic acid], 10 to 100 nM.
For `CC#CC(CC(=O)O)c1ccc(OCc2cccc(-c3ccccc3C(F)(F)F)c2)cc1` (centres unmarked) [Compound 6.8] the value was 10 to 100 nM; for `CC#C[C@@H](CC(=O)O)c1ccc(OCc2ccc(OC)cc2)cc1` [Compound 39.7, (3S)-3-[4-(4-Methoxy-benzyloxy)-phenyl]-hex-4-ynoic acid], 10 to 100 nM.
Regarding `CC#CC(CC(=O)O)c1ccc(OCc2ccc(-c3ccccc3)cc2)cc1` (centres unmarked) [Compound 7.3], the EC50 fell in the range of 1000 to 10000 nM.
On to `CCC(=O)N[C@@H](CC(=O)O)c1ccc(OCc2cccc(Oc3ccc(F)cc3)c2)cc1` [Compound 88.2], for which the EC50 is over 10000 nM.
`CC#CC(CC(=O)O)c1ccc(OCc2sc(-c3ccc(C)cc3)nc2C)cc1` (centres unmarked) [Compound 9.2]: the EC50 was under 10 nM.
For `CC#CC(CC(=O)O)c1ccc(OCc2cccc(-c3ccncc3)c2)cc1` (centres unmarked) [Compound 10.10] the value was 100 to 1000 nM; for `CC#CC(CC(=O)O)c1ccc(SCc2ccccc2C)cc1` (centres unmarked) [Compound 28, 3-[4-(2-Methyl-benzylsulfanyl)-phenyl]-hex-4-ynoic acid], 100 to 1000 nM.
Take `COc1ccc(COc2ccc(C(C#Cc3ccccc3)CC(=O)O)cc2)cc1` (centres unmarked) [Compound 14.6]: the EC50 lay in the range of 1000 to 10000 nM.
As to `CC#CC(CC(=O)O)c1ccc(OCc2ccc(CCc3ccccc3)cc2)cc1` (centres unmarked) [Compound 10.7], the EC50 was 100 to 1000 nM.
Consider `CC#CC(CC(=O)O)c1ccc(OCc2csc(-c3ccc(OC)cc3)n2)cc1` (centres unmarked) [Compound 8.4], for which the EC50 was in the range of 10 to 100 nM.
With `CC#CC(CC(=O)O)c1ccc(OCc2ccc(-c3cccnc3)cc2)cc1` (centres unmarked) [Compound 10.12], the half-maximal effective concentration (EC50) lay in the range of 1000 to 10000 nM.
The result for `CC#CC(CC(=O)O)c1ccc(OCCc2ccccc2)cc1` (centres unmarked) [Compound 17.8] reads 1000 to 10000 nM; that for `CC#CC(CC(=O)O)c1ccc(OCc2cccc(-c3ccccc3OCC)c2)cc1` (centres unmarked) [Compound 6.2], 10 to 100 nM.
The result for `CC#CC(CC(=O)O)c1ccc(OCc2ccccc2C)cc1` (centres unmarked) [Compound 17.6] reads 100 to 1000 nM; that for `CC#C[C@@H](CC(=O)O)c1ccc(OCc2cc(-c3ccccc3)oc2C)cc1` [Compound 5, 3-[4-(2-Methyl-5-phenyl-furan-3-ylmethoxy)-phenyl]-hex-4-ynoic acid], 10 to 100 nM; that for `CC#CC(CC(=O)Nc1nccs1)c1ccc(OCc2ccc(OC)cc2)cc1` (centres unmarked) [Compound 24, 3-[4-(4-Methoxy-benzyloxy)-phenyl]-hex-4-ynoic acid thiazol-2-ylamide], 100 to 1000 nM.
The result for `C=CCC(CC(=O)O)c1ccc(OCc2ccc(OC)cc2)cc1` (centres unmarked) [Compound 34.4] reads 1000 to 10000 nM; that for `CC#CC(CC(=O)O)c1ccc(NCc2cccc(OC)c2)cc1` (centres unmarked) [Compound 36.1], 100 to 1000 nM; that for `CCC(CC(=O)O)c1ccc(OCc2ccc(OC)cc2)cc1` (centres unmarked) [Compound 14.3], 1000 to 10000 nM.
In the case of `O=C(O)CC1(c2ccc(OCc3cccc(-c4ccc(C(F)(F)F)cc4)c3)cc2)CC1` [Compound 89], the EC50 was 1000 to 10000 nM.
Regarding `O=C(O)CC(c1ccc(F)cc1)c1ccc(OCc2cccc(-c3ccc(C(F)(F)F)cc3)c2)cc1` (centres unmarked) [Compound 46.1, 3-(4-fluorophenyl)-3-[4-(4′-trifluoromethyl-biphenyl-3-ylmethoxy)-phenyl]-propionic acid], the EC50 was in the range of 100 to 1000 nM.
The result for `CC#C[C@@H](CC(=O)O)c1ccc(OCc2csc(-c3ccc(C(F)(F)F)cc3)n2)cc1` [Compound 80] reads under 10 nM.
